Assay results from patent US20140329863A1 (priority 2011, published 2014).
Converted amounts (≈) assume the structure as drawn. Where two headings read alike, the source gives them in different places.

Assays:
ScN2a-c13 cells = assay: cells; format: cell-based; settings: Mus musculus; N=3; read-out: EC50 by calcein for cell viability
[1] = Hepatic microsomal stability, rat
[2] = Multidose (three-day) pharmacokinetics in liquid diet in FVB mice; settings: FVB, mouse, in vivo, three-day dosing in liquid diet
in vitro = settings: dog, MDCK-MDR1
P-gp (MDR1) = assay: in vitro; settings: dog, MDCK-MDR1
[3] = Hepatic microsomal stability, human; settings: for half-life at 1 μM: human, pH 7.4
[4] = test system: PrP^Sc in dividing ScN2a-cl3 cells; format: cell-based, mouse; parameters: Dividing ELISA pEC50 (μM) 1st Expt. / Dividing ELISA pEC50 (μM) 2nd Expt. / Dividing ELISA pEC50 (μM) 3rd Expt. / Dividing ELISA pEC50 (μM) Mean: unit not given here
physchem [5] = assay: physchem
[6] = Toleration studies in mice
[7] = Single-dose pharmacokinetics in FVB mice (oral gavage, IV)
[8] = Hepatic microsomal stability, mouse; settings: for half-life at 1 μM: pH 7.4
[9] = test system: PrP^Sc in dividing ScN2a-c13 cells; settings: read-out: EC50 (ELISA), reduction of PrP^Sc load; dividing ScN2a-c13 cells
PrP^C in N2a-c13 cells = format: cell-based, mouse; settings: read-out: EC50 (μM) ELISA in N2a-cl3 cells (value in parentheses)
PrP^C in T98G cells = format: cell-based, human; settings: read-out: EC50 (μM) ELISA potency, PrP^C in T98G cells
physchem [10] = assay: physchem; remark: listed apart in the source
[11] = pH 7.4
MDCK-MDR1 cells = assay: Permeability in MDCK-MDR1 cells; settings: MDR1-MDCK cell monolayers; for Permeability PA→B: apical to basal; for Permeability PB→A: basal to apical
N2a-cl3 cells = assay: cells; settings: Mus musculus, N2a-cl3, read-out: Dividing Calcein EC50 (μM) Mean (n = 3)
[12] = test system: PrP^Sc in nondividing ScN2a-cl3 cells; format: cell-based, mouse; settings: read-out: Non-Dividing ELISA EC50 (μM) Mean (n = 3); ScN2a-c13 non-dividing cells; mean n = 3
[13] = test system: MDCK-MDR^1 cells (P-glycoprotein); assay: Bidirectional MDCK-MDR1 cell permeability; format: in vitro ADME, canine
Description: MDCK-MDR^1 cells were grown to confluence for 5-10 days on 1-μm filters in 24-well plates {Hilgers, 1990}. Aliquots of DMSO stocks were diluted into Hank's balanced salt solution (HBSS), pH 7.4, containing […] to give 10-μM solute concentration. The solute containing donor solutions were transferred to either the apical or basolateral chamber of the permeability diffusion apparatus. Receiver solutions consisted of HBSS (pH 7.4) containing 25 mM HEPES+0.05% PS80. Sequential samples of transported solute were taken at 20-min intervals using an automated liquid handling platform. The concentration of transported solute during each sampling interval was determined by HPLC/UV/MS. Permeability coefficients were calculated for each sampling interval. The average and standard deviation from the intervals are reported. Mass balance in the system was ascertained by comparing the sum of total transported solute and remaining donor solute with the starting mass of solute and is expressed as a percentage of donor solute at time zero. […] In the event of mass balance less than 70%, the cell monolayers were extracted with ACN and analyzed for the solute of interest. Determinations were conducted in duplicate.

[14] = […]
[15] = not given; remark: listed apart in the source
[16] = ScN2a-cl3 dividing cells, 1st determination
[17] = ScN2a-cl3 dividing cells, 2nd determination
[18] = ScN2a-cl3 dividing cells, 3rd determination
[19] = ScN2a-cl3 dividing cells, mean of three determinations
[20] = read-out: Antiprion activity ScN2a-cl3 EC50, ScN2a-cl3 cells
[21] = read-out: Dividing ELISA EC50 (μM) 1st Expt., ScN2a-cl3 dividing cells, 1st determination
[22] = read-out: Dividing ELISA EC50 (μM) 2nd Expt., ScN2a-cl3 dividing cells, 2nd determination
[23] = read-out: Dividing ELISA EC50 (μM) 3rd Expt., ScN2a-cl3 dividing cells, 3rd determination
[24] = read-out: Dividing ELISA EC50 (μM) Mean, ScN2a-cl3 dividing cells, mean of three determinations

Cc1cccc(Nc2nc(-c3cc4ccccc4o3)cs2)n1 [IND22, (4-Benzofuran-2-yl-thiazol-2-yl)-(6-methyl-pyridin-2-yl)-amine]
EC50 (ScN2a-c13 cells): > 10 µM | half-life at 1 μM ([1]; Sprague-Dawley, rat, […], pH 7.4): > 60 min | % remaining after a 60-min incubation, Rat ([1]; […], 60-min incubation): 64% | Hepatic Extraction Ratio Rat ([1]; rat microsomes): 0.4 | concentration at 3 days ([2]; 40 mg/kg, Brain Concentration (Css), brain): 1.31 ± 0.39 µM | concentration at 3 days ([2]; 40 mg/kg, Plasma Concentration (Css), plasma): 1.49 ± 0.15 µM | concentration at 3 days ([2]; 80 mg/kg, Brain Concentration (Css), brain): 2.7 ± 0.52 µM | concentration at 3 days ([2]; 80 mg/kg, Plasma Concentration (Css), plasma): 2.14 ± 0.58 µM | concentration at 3 days ([2]; 130 mg/kg, Brain Concentration (Css), brain): 3.74 ± 0.41 µM | concentration at 3 days ([2]; 130 mg/kg, Plasma Concentration (Css), plasma): 2.5 ± 0.67 µM | concentration at 3 days ([2]; 210 mg/kg, Brain Concentration (Css), brain): 3.23 ± 2.62 µM | concentration at 3 days ([2]; 210 mg/kg, Plasma Concentration (Css), plasma): 1.98 ± 1.24 µM | solubility in FaSSIF (in words) (fasted-state simulated intestinal fluid): higher solubility | solubility at pH 2.0 (in words) (pH 2 (HCl) buffer): higher solubility | Papp A→B (in vitro): 95 nm/s | Papp B→A (in vitro): 84 nm/s | efflux ratio (P-gp (MDR1)): 0.9 | % remaining after a 60-min incubation, Human ([3]; human liver microsomes, 60-min incubation): 99% | half-life at 1 μM ([3]; human liver microsomes): > 60 min | half-life at 1 μM ([3]; liver microsomes): > 60 min | EC50 ([4]; AMT analogs tested for potency): 1.46 µM | EC50 ([4]; Table 29, 2-AMT analogs tested for potency, usually n = 3 or more): 1.46 µM | solubility (physchem [5]; FaSSIF): 59 µM (≈ 18.1 µg/mL) | solubility (physchem [5]; cell culture media, plasma or biological fluid): 20 µM (≈ 6.15 µg/mL) | solubility (physchem [5]; pH 2 (HCl) buffer, pH 2, simulated gastric fluid): 12 µM (≈ 3.69 µg/mL) | solubility (physchem [5]; pH 7.4 (phosphate) buffer, pH 7.4, aqueous buffer): < 1 µM | Toleration ([6]; 210 mg/kg/day for 14 days, mice): well tolerated | Earliest deaths in treated mice ([6]; long-term dosing in mice): 59 days | Kp ([7]; female, FVB, mouse, brain and plasma, po, 10 mg/kg): 0.5 | bioavailability ([7]; female, FVB, mouse, plasma, po, 10 mg/kg): 46% | Brain exposure (AUClast) ranking ([7]; single oral dose, FVB mice, brain): highest AUC values in brain | half-life at 1 μM ([8]; CD-1, mouse, liver microsomes): 49 min | half-life at 1 μM ([8]; CD-1, mouse, mouse liver microsomes): 49 min | Hepatic Extraction Ratio Mouse ([8]; mouse): 0.7 | % remaining after a 60-min incubation, Mouse ([8]; mouse liver microsomes, 60-min incubation): 40% | Hepatic Extraction Ratio Mouse ([8]; mouse microsomes): 0.7 | EC50 [9]: 1.46 µM

COc1ccnc(Nc2nc(-c3cc(-c4ccccc4)no3)cs2)c1 [IND112, (4-Methoxy-pyridin-2-yl)-[4-(3-phenyl-isoxazol-5-yl)-thiazol-2-yl]-amine]
EC50 (ScN2a-c13 cells): > 10 µM | EC50 ([4]; AMT analogs tested for potency): 0.251 µM | EC50 [9]: 0.251 µM

COc1ccc(Nc2nc(-c3cc(-c4ccccc4)no3)cs2)nc1 [IND120, (5-Methoxy-pyridin-2-yl)-[4-(3-phenyl-isoxazol-5-yl)-thiazol-2-yl]-amine]
EC50 (ScN2a-c13 cells): > 10 µM | EC50 ([4]; AMT analogs tested for potency): 0.229 µM | EC50 [9]: 0.229 µM

COc1cc(OC)cc(C(=O)Nc2ccc(I)cn2)c1 [IND85671]
EC50 (PrP^C in N2a-c13 cells): 0.863 µM | EC50 (PrP^C in T98G cells): 1.1 µM

NC(=O)c1ccccc1NC(=O)c1cccnc1N1CCCCC1 [IND87406]
EC50 (PrP^C in N2a-c13 cells): 3.11 µM | Hepatic Extraction Ratio Human ([3]; human liver microsomes, predicted hepatic extraction): 0.65 | half-life at 1 μM ([3]; human liver microsomes): 37.1 min | EC50 (PrP^C in T98G cells): 1.12 µM | Hepatic Extraction Ratio Mouse ([8]; mouse liver microsomes, predicted hepatic extraction): 0.91 | half-life at 1 μM ([8]; mouse, mouse liver microsomes): 6.35 min

CCOC(=O)c1[nH]c2c(c1C)C(=O)CC(c1ccco1)C2 (stereo not shown) [IND87564]
EC50 (PrP^C in N2a-c13 cells): 1.12 µM | EC50 (PrP^C in T98G cells): 0.25 µM

Cc1cccc(Nc2nc(-c3ccc(-c4ccc(OCC#N)nc4)cc3)cs2)n1 [IND-0116165]
solubility (physchem [10]; pH 1.2, simulated gastric fluid): 2.2 µM (≈ 0.879 µg/mL) | solubility (physchem [10]; pH 7.4, aqueous buffer): < 0.4 µM | Analiza solubility (μM) pH 7.4 [11]: <0.4 μM

COc1ccc(-c2csc(Nc3ccc(C(F)(F)F)cn3)n2)cc1OC [compound 12, [4-(3,4-dimethoxyphenyl)-thiazol-2-yl]-(5-trifluoromethylpyridin-2-yl)-amine]
Microsome stability T1/2 ([1]; […]): 150 min | Permeability PA→B (MDCK-MDR1 cells): 9.4 10^−6 cm/sec | Permeability PB→A (MDCK-MDR1 cells): 8.7 10^−6 cm/sec | EC50 (N2a-cl3 cells): > 32 µM | Dividing ELISA pEC50 (μM) 1st Expt. [4, 16]: 5.53 | Dividing ELISA pEC50 (μM) 2nd Expt. [4, 17]: 5.69 | Dividing ELISA pEC50 (μM) 3rd Expt. [4, 18]: 5.58 | Dividing ELISA pEC50 (μM) Mean [4, 19]: 5.60 | EC50 [4, 20]: 2.53 µM | EC50 [4, 21]: 2.93 µM | EC50 [4, 22]: 2.05 µM | EC50 [4, 23]: 2.62 µM | EC50 [4, 24]: 2.53 µM | EC50 [12]: > 32 µM | P-gp substrate status, absorptive vs secretory permeability [13]: greater permeability in the absorptive direction | metabolic stability (in words) [14]: excellent stability

COc1ccc(-c2csc(Nc3cc4ccccc4cn3)n2)cc1OC [compound 17, [4-(3,4-dimethoxyphenyl)-thiazol-2-yl]isoquinolin-3-yl-amine]
Microsome stability T1/2 ([1]; […]): 83 min | EC50 (N2a-cl3 cells): > 32 µM | EC50 [4, 21]: 0.101 µM | EC50 [12]: > 32 µM | P-gp substrate status, absorptive vs secretory permeability [13]: greater permeability in the absorptive direction | metabolic stability (in words) [14]: excellent stability

COc1ccc(-c2csc(Nc3ccc4ccccc4n3)n2)cc1OC [compound 18, [4-(3,4-dimethoxyphenyl)-thiazol-2-yl]-quinolin-2-yl-amine]
Microsome stability T1/2 ([1]; […]): 69 min | Permeability PA→B (MDCK-MDR1 cells): 9.2 10^−6 cm/sec | Permeability PB→A (MDCK-MDR1 cells): 8.9 10^−6 cm/sec | EC50 (N2a-cl3 cells): > 32 µM | Dividing ELISA pEC50 (μM) 1st Expt. [4, 16]: 6.31 | Dividing ELISA pEC50 (μM) 2nd Expt. [4, 17]: 6.47 | Dividing ELISA pEC50 (μM) 3rd Expt. [4, 18]: 6.34 | Dividing ELISA pEC50 (μM) Mean [4, 19]: 6.38 | EC50 [4, 20]: 0.43 µM | EC50 [4, 21]: 0.486 µM | EC50 [4, 22]: 0.34 µM | EC50 [4, 23]: 0.453 µM | EC50 [4, 24]: 0.426 µM | EC50 [12]: > 32 µM | P-gp substrate status, absorptive vs secretory permeability [13]: greater permeability in the absorptive direction | metabolic stability (in words) [14]: excellent stability

Cc1ccc(Nc2nc(-c3c(-c4ccccc4)noc3C)cs2)nc1 [compound 28, [4-(5-Methyl-3-phenylisoxazol-4-yl)-thiazol-2-yl]-(5-methylpyridin-2-yl)-amine]
Microsome stability T1/2 ([1]; […]): 19 min | Permeability PA→B (MDCK-MDR1 cells): 11.2 10^−6 cm/sec | Permeability PB→A (MDCK-MDR1 cells): 8.6 10^−6 cm/sec | EC50 (N2a-cl3 cells): > 32 µM | Dividing ELISA pEC50 (μM) 1st Expt. [4, 16]: 4.52 | Dividing ELISA pEC50 (μM) 2nd Expt. [4, 17]: 4.82 | Dividing ELISA pEC50 (μM) 3rd Expt. [4, 18]: >4.5 | EC50 [4, 20]: > 26 µM | EC50 [4, 21]: 30 µM | EC50 [4, 22]: 15.2 µM | EC50 [4, 23]: > 32 µM | EC50 [4, 24]: > 26 µM | EC50 [12]: > 32 µM | P-gp substrate status, absorptive vs secretory permeability [13]: greater permeability in the absorptive direction | melting point [15]: 267 to 269 °C
